From patent publication US12258561B2, “Compositions and methods to promote bone formation and their uses including for the treatment of cancer” (THE RESEARCH FOUNDATION FOR THE STATE UNIVERSITY OF NEW YORK, priority 2014, dated 2025)

Columns and labels:
[1] = system: monocyte cultures; test: Assay of cell number (MTT) in monocyte cultures; assay type: cell-based, human; settings: naloxone added to monocyte cultures
Source text: Methods: Human Bone Marrow was Collected from Consenting Adult Patients undergoing either an elective primary proximal femoral total hip arthroplasty or elective primary distal femoral total knee arthroplasty (n=6, mean age 65) as a part of an IRB approved study. Human MSC were derived from the adherent fraction of cells derived from each whole bone marrow aspirate collected, while the monocyte population was collected from the non-adherent fraction of the bone marrow. The monocyte fraction was enriched through sub-culture with 100-ng/mL recombinant human macrophage colony-stimulating factor (MCSF; Wyeth). In parallel experiments described below, the femurs from 3-week (n=10) and 16-week (n=20) old male mice were collected and then the bone marrow was flushed from the femur according to the following: A 21-gauge needle was inserted into the femoral intramedular canal after the removal of the proximal and distal ends of the femur. […]
Assay of Cell Number: Following the addition of 1-mM naloxone or 1-mM naltrexone, viable cell number was determined with the MTT assay. […] MTT was measured at 570-nm and the effects of therapy on cell proliferation were determined by normalizing treated wells relative to mean values from non-treated wells: Fold change in cell number=100*[treated cells optical density/mean control optical density].

[2] = system: unicortical defect in mouse tibia; test: Unicortical defect model, direct injection, microCT; assay type: in vivo, C57BL/6 mice
Procedure: Unicortical Defect Model: Male 3-week old C57BL/6 mice (n=5 per treatment group) were injected with met5, naloxone or naltrexone following the creation of a unicortical defect. Briefly, a small incision (approximately 3-mm) was made just below the knee joint, located on the medial side of the tibia just below the tibial tuberosity on the tibial crest. In young animals the physeal plate is clearly visible and the drill bit was placed approximately 1-mm below this point. The drill-bit produces a unicortical defect with dimensions 300-μm diameter×1-mm depth. A Hamilton Neuros RN 10-μL syringe with a 33-gauge blunt tip needle was used to inject 2-μL of met5 (28.7-μg), naloxone (400-μg) or naltrexone (378-μg) resuspended in saline directly into the unicortical defect at a rate no faster than approximately 0.1-μL per second. The left-limb tibias served as contra-lateral surgical controls, in which animals received a unicortical defect and 2-μL of saline was injected. Mice were euthanized 5-days after surgery, hind limbs were collected and tibias were fixed for immunofluorescence, TRAP staining and OTC associated bone growth.
(§1) MicroCT Analysis of Unicortical Defects: High-resolution images of the tibia were acquired with μCT imaging system (μT40; Scanco Medical). Tibias were scanned at 45-keV with an isotropic voxel size of 12-μm. An analysis region was selected from axial sections to include the entire unicortical defect bounded by the endosteal cortical wall. The volume corrected bone volume (bone volume/total volume; By/Tv), trabecular number (TbN) and trabecular thickness (TbTh) were calculated using the Scanco software.

[3] = system: unicortical defect in mouse tibia; test: Opioid antagonist containing collagen implant in unicortical defect model, microCT; assay type: in vivo, C57BL/6 mice; settings: 7 days after surgery
Source text: Implantation of Opioid Antagonist Containing Collagen Implant into a Unicortical Defect Model: Male 5-week old C57BL/6 mice (n=5 per treatment group for a total of 25 total animals) were used in this study. […] Unicortical defects were surgically administered through a small incision (approximately 3-mm) made just below the knee joint, located on the medial side of the tibia just below the tibial tuberosity on the tibial crest. In 5-weeks old male mice, the physeal plate is clearly visible and the drill bit was placed approximately 1-mm below this point. The drill-bit produces a unicortical defect with dimensions 300-μm diameter×1-mm depth. […] In parallel, a separate group of animals served as non-surgical controls. Mice were euthanized 7-days after surgery, hind limbs were collected and tibias were prepared for micro-CT (μCT) analysis.
as §1

[4] = system: SaO52 osteosarcoma tumor cells; test: Assay of cell number (MTT), osteosarcoma cells; assay type: cell-based; settings: 1-mM, seventy-two hours
Source text: Methods: Human bone marrow was collected from consenting adult patients undergoing either an elective primary proximal femoral total hip arthroplasty or elective primary distal femoral total knee arthroplasty (n=6, mean age 65) as a part of an IRB approved study. Human MSC were derived from the adherent fraction of whole bone marrow aspirates. Ewing's sarcoma tumor cells (RDES, Hs822 and Hs863) and SaOS2 osteosarcoma tumor cells were obtained from ATCC. Cells were maintained in Dulbecco's Modification of Eagle's Media (DMEM) containing 10% fetal calf serum (v/v) and 1% penicillin-streptomycin-glutamine (PSG; Cellgro, Mediatech).
Assay of Cell Number: Following the addition of 1-mM naloxone or 1-mM naltrexone, viable cell number was determined with the MTT assay. After 72-hours and 120-hours, MTT (5 mg/ml (w/v), Sigma) was added to each well, incubated for 2-hours, after which the cells lysed with 500-μl of DMSO (Sigma). MTT was measured at 570-nm and the effects of therapy on cell proliferation were determined by normalizing treated wells relative to mean values from non-treated wells: Fold change in cell number=100*[treated cells optical density/mean control optical density].

[5] = collagen implant, 25-ng BMP2, 1-mM naltrexone or 1-mM naloxone

With `C=CCN1CC[C@]23c4c5ccc(O)c4O[C@H]2C(=O)CC[C@@]3(O)[C@H]1C5` [naloxone] the “proliferation (cell number) in monocyte cultures” value [1] was “decreased proliferation”, the “increase in trabecular number (TbN)” value ([2]; 1-mM injected into defect) was 1.2 fold and the “increase in bone mass (Bv/Tv)” value ([2]; 1-mM injected into defect, relative to control PBS or met5 treated defects) was 1.53 fold. For the same compound, the bone healing ([2]; naloxone 1-mM or met5 50-μM) was “increased bone healing”, the “increase in trabecular thickness relative to all other treatment groups” value ([3]; 1-mM naloxone with collagen implant) was “approximately 37%” and the “Bv/Tv relative to non-surgical controls” value ([3]; collagen implant) was “increased relative to non-surgical controls”. For the same compound, the “trabecular thickness (TbTh) relative to the control non-surgical group” value ([3]; collagen implant) was “increased within the defect significantly”, the “increase in Bv/Tv relative to BMP2 treatment group” value ([3]; collagen implant, 1-mM) was 18.2% and the “increase in Bv/Tv relative to the PBS treated group” value [3, 5] was 56.5%. The “increase in Bv/Tv relative to the surgical control group” value [3, 5] was 83.8% and the “SaO52 osteosarcoma cell number relative to control cultures” value [4] was “decreased significantly”.
